Patent US6630491B1, “Use of nicotinic analogs for treatment of degenerative diseases of the nervous system” (priority 1991, dated 2003)
Where a name gives a salt, the structure may show the parent alone.

Columns and labels:
[1] = Water solubility (observation during synthesis); type: physicochemical
Experimental: The lithium enolate of 3nicotinoyl2-piperidone (4.94w) of step 1 was added slowly to a round bottom flask containing 30 mL of concentrated HCl which was chilled in an ice bath and stirred. The enolate was not readily soluble. The reaction mixture was heated at reflux under nitrogen overnight to effect the hydrolysis and decarboxylation. […] The reaction should not be diluted with too much aqueous acid or the product will not crystallize during the work up.

brain tissue slices = assay: Aspartate release from brain tissue slices; conditions: for aspartate release, dose relation: except at one low concentration, FIGS. 6 and 7
Excerpt: (§1) These different types of cerebral cortical transmitter systems have been tested. The first is the cholinergic; the procedures used to load cholinergic neurons or slices with newly synthesized [3H]ACh were described previously (Meyer, et al., 1987). The second is aspartate, an excitatory amino acid which, like glutamate, is associated with memory (long term potentiation) and neuropathology (e.g., stroke). The third type of neurotransmitter is GABA, which is the predominant transmitter in the cerebral cortex and is therefore very likely to receive cholinergic innervation.
(§2) In order to measure aspartate or GABA release, tissues were incubated with 100 nM [3H] aspartate or 250 nM [3h] GABA in Krebs Ringer buffer at 37° C. for 30 minutes, then washed them in ice cold buffer. All release-incubations were at 37° C. for 15 minutes in the presence or absence of 50 mM KCl (depolarization). Radiation accumulation was also measured in slices in order to express the released levels of transmitter as % of total transmitter, since slices were somewhat variable with respect to accumulation of label. K+ induced release of transmitter was determined by subtracting the basal release from that in the presence of the elevated K+, such that only the incremental release was determined.
The fact that nicotine […] without increasing basal release as well as K+ induced release is surprising. One hypothesis is that nicotine stimulates another type of neuron (presumably excitatory) to dis-inhibit the release of aspartate; this dis-inhibition would not be seen except when the aspartate neuron itself was activated by depolarization.

cortical slices [2] = assay: [3H]GABA release from cortical slices
Excerpt: as §1, §2
This pattern was also observed with [3H]ACh release and [3H]GABA release from cortical slices. […]

[3] = tested on: Male Sprague Dawley albino rats; assay: Passive avoidance behavior in nucleus basalis lesioned and unlesioned rats; type: in vivo, rat; conditions: for dose that interfered with training or behavior: after lesioning; for effective dose in passive avoidance behavior: i.p. 5 min before trial and testing; for shift (increase) in potency by lesioning: lesioned vs unlesioned animals; for shift (increase) in potency by lesioning / potency in lesioned vs unlesioned animals: passive avoidance; for potency in lesioned vs unlesioned animals: FIGS. 1 and 2
Experimental: Male Sprague Dawley albino rats were used for all studies and were maintained in departmental animal facilities, using NIH guidelines for care of animals. Where lesioned animals were tested, lesions were induced in anesthetized animals by bilateral infusion of ibotenic acid (5 μg in 1 μl) or phosphate buffered saline (PBS) into the nucleus basalis region.
For passive avoidance behavior, animals received a moderately strong shock (0.8 m Amp) for 1 second after entering a dark room. After 24 hours, the animals were again tested to determine if they could remember to stay out of the dark room. Animals were only allowed 5 minutes to make their choice, when they were removed from the lighted chamber. For testing the effects of drugs in animals that were not lesioned, shocks were only 0.5m Amp in intensity, and the animals were allowed 72 hours until they were tested after training. In all drug-treatment studies, the drugs were injected intraperitoneally in saline diluent 5 minutes before the trial and 5 minutes before the testing period.
The effect of (−)anabaseine on passive avoidance was also determined using unlesioned animals (FIG. 3). In these experiments (−)anabaseine was injected intraperitoneally 5 min. before training and testing in the passive avoidance apparatus. Only animals that trained within 300 sec the first time were used (i.e., those animals that entered the dark compartment and received a mild foot shock).

[4] = tested on: cerebral cortical synaptosomes; assay: Release of newly synthesized [3H]ACh from synaptosomes
Excerpt: (§3) Neurotransmitter release from synaptosomes provides a potential marker for receptor-activity at different types of nerve terminals. Neurotransmitter release from intact slices or minces provides a marker for receptor activity at many sites on the neuron. A comparison of the effects of nicotine and other drugs on synaptosomes versus slices provides some idea as to the location of nicotinic receptors on different types of cerebral cortical neurons, as well as their cellular location.
as §1, §2
(§4) Neurotransmitter levels (aspartate, glutamate) and enzyme levels were assayed as described by Arendash, et al., Science, 238:952, 1987. […] ACh from synaptosomes. Also, no effect was seen on the release of [3H] aspartate from isolated terminals.

[5] = tested on: isolated terminals (synaptosomes) of cerebral cortex; assay: Release of [3H]aspartate from isolated terminals
Excerpt: as §3, §1, §2, §4

cortical slices [6] = assay: [3H]ACh release from cortical slices
Excerpt: as §1, §2
This pattern was also observed with [3H]ACh release and [3H]GABA release from cortical slices. Nicotine (100 nM) increased the K+ induced release of ACh but reduced the K+induced GABA release from slices, while anabaseine (1 μM) had no effect on either process. […] Thus, it appears that the ability of nicotinic types of compounds to modulate neurotransmitter release is not mediated through one of the receptors with high affinity for anabaseine, or DMAB-anabaseine.

[7] = tested on: vertebrate neuromuscular nicotinic acetylcholine receptors; conditions: Kem, Amer.Zoologist, 25:99, 1985; cited from earlier work
aged rats [8] = assay: 17-arm radial maze testing of aged rats; type: in vivo, rat; conditions: 2 mg/kg 15 minutes prior to each daily trial, FIG. 4
Excerpt: The 17 arm radial maze requires animals to remember a baited set of 8 arms out of the 17 total arms. At the start of each daily trial, rats are placed in the center of the maze and permitted to choose among the 17 arms until all 8 food rewards are taken or until fifteen minutes elapse. Those animals that reach a performance criteria of 17 arm choices on two consecutive days of testing during the first 14 days of testing are continued in testing for an additional 30 days. For such animals, only data collected after day 14 are used in the statistical analyses. Statistical analyses are done on 3 sets of data. The first is a measure of general learning: the percent correct choices (entries into baited arms) over the first 8 arm choices. The second is a measure of short term memory (working memory) calculated from the first 12 arm choices: the percent of choices into baited arms (containing food) over the total number of choices within the baited set. Working memory, an interatrial measure of short term memory, measured the rat's ability to remember which of the arms in the baited set were previously entered and the food reward taken. The third set of data measured long-term or reference memory and also was calculated from the first 12 arm choices. Reference memory, defined as an inter-trial measure, is the percent correct choices in the baited set over the total number of arm choices. […]

aged rats [9] = assay: Lashley III maze testing of aged rats; type: in vivo, rat; conditions: aged animals, 2 mg/kg before training, first two blocks of tests, FIG. 5
Excerpt: The Lashley III maze tests an animal's ability to learn a series of left-right alternation turns. Six alternation errors are possible for any given daily trial; chance performance level is 3 errors per trial. Previous studies have shown that young adult sham operated animals quickly learn to reduce their number of alternation errors to near zero by the end of the test period. By contrast, 23 months old (Aged) sham operated animals made substantially more errors over the 25 days of testing. […] Therefore, both age- and lesion-induced learning deficits were observed. Nonetheless, all groups did improve their performance over time.
Aged animals injected with saline or DMAB-anabaseine were evaluated in the Lashley III maze (FIG. 5). […] This reflected an improvement in another memory-related behavior with this nicotine agonist.

[10] = even in animals with reduced neocortical cholinergic activity

vertebrate neuromuscular nicotinic acetylcholine receptors, sequence (P02708 21-457): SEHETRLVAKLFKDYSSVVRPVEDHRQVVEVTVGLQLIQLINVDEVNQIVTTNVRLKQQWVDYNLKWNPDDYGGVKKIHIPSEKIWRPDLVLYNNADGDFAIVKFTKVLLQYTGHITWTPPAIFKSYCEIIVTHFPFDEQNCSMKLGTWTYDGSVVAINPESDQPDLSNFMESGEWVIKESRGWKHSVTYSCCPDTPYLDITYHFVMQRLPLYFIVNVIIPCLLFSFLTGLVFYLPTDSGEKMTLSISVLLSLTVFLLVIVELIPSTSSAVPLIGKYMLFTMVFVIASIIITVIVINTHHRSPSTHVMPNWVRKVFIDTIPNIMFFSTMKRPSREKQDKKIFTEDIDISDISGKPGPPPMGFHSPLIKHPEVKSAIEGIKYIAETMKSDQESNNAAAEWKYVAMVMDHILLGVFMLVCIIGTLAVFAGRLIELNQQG
vertebrate neuromuscular nicotinic acetylcholine receptors, sequence (P11230 24-501 partner): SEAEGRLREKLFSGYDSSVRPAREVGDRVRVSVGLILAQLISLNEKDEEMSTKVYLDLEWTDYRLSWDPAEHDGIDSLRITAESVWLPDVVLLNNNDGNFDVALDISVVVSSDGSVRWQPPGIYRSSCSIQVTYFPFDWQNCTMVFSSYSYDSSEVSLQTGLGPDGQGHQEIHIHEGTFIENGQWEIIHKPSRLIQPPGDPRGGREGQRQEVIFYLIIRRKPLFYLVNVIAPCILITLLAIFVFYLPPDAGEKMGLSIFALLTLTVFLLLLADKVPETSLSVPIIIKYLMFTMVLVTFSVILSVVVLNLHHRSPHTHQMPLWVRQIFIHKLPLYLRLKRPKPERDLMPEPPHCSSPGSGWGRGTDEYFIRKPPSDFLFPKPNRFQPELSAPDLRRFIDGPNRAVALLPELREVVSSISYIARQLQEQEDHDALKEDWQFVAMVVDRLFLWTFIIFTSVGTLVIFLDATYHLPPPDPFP
vertebrate neuromuscular nicotinic acetylcholine receptors, sequence (Q07001 22-517 partner): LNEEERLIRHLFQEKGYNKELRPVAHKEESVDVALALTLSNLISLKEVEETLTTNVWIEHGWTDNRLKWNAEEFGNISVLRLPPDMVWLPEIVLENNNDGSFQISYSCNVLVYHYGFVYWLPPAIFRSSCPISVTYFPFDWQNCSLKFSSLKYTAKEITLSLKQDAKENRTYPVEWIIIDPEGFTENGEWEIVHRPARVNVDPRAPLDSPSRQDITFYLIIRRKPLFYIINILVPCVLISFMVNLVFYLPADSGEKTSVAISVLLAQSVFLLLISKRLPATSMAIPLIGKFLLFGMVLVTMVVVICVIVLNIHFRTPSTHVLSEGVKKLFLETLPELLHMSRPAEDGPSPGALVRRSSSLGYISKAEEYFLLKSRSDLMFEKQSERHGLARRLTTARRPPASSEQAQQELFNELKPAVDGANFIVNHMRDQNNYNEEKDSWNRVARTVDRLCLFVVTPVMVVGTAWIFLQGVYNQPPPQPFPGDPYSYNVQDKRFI

SMILES | dose that interfered with training or behavior [3] [mg/kg] | 50 mM KCl induced release of newly synthesized [3H]ACh [4] | basal release of newly synthesized [3H]ACh [4] | release of [3H]aspartate [5] | aspartate release, dose relation (brain tissue slices) | effect on passive avoidance (memory-related) behavior [3, 10] | shift (increase) in potency by lesioning [3] | potency in lesioned vs unlesioned animals [3] | also measured
c1cncc(C2=NCCCC2)c1 [anabaseine dihydrochloride] |  |  |  |  |  |  |  |  | water solubility [1]: very water soluble
CN1CCCC1c1cccnc1 (stereo not shown) [nicotine, reference compound] | 0.2 | no effect | no effect | no effect |  |  |  |  | K+ induced release of aspartate (brain tissue slices; 100 nM, FIG. 6): increased; spontaneous release of transmitter (aspartate) (brain tissue slices; 100 nM, FIG. 6): without affecting; K+ induced GABA release (cortical slices [2]; 100 nM): reduced; effective dose in passive avoidance behavior ([3]; nucleus basalis lesioned animals): 0.02 mg/kg; effective dose in passive avoidance behavior ([3]; unlesioned animals): 0.05 mg/kg; basal ACh release (cortical slices [6]): increased; K+ induced release of ACh (cortical slices [6]; 100 nM): increased
c1cncc(C2=NCCCC2)c1 [anabaseine, 2-(3-pyridyl)-3,4,5,6-tetrahydropyridine] | 0.2 | no effect | no effect | no effect | did not increase aspartate release in a dose-related manner | can improve this type of memory-related behavior | ~2.5 fold | more potent in lesioned then in unlesioned animals | K+ induced GABA release (cortical slices [2]; 1 μM): no effect; effect on passive avoidance (memory-related) behavior ([3]; unlesioned animals, i.p. 5 min before training and testing (FIG. 3)): can improve this type of memory-related behavior; activation of vertebrate neuromuscular nicotinic acetylcholine receptors [7]: potent activator; K+ induced release of ACh (cortical slices [6]; 1 μM): no effect
CN(C)c1ccc(C=C2CCCN=C2c2cccnc2)cc1 [DMAB-anabaseine, 3-[p-(dimethylamino)benzylidene]-3,4,5,6-tetrahydro-2,3′-bipyridine] |  | no effect | no effect | no effect | did not increase aspartate release in a dose-related manner | can improve this type of memory-related behavior | 2-2.5 fold | more potent in lesioned then in unlesioned animals | measure of long term memory (aged rats [8]): improved; short term memory (aged rats [8]): without affecting; number of errors in the maze (aged rats [9]): reduced the number of errors
